# From patent publication US5185330A, “Penam derivatives and salts thereof, and antibacterial agent comprising the same” (Toyama Chemical Co., Ltd., priority 1989, dated 1993)
# Where two headings read alike, the source gives them in different places.
# Legend:
# E. coli TK-3 = test: Antibacterial activity (MIC, agar dilution) against E. coli TK-3*; type: cell-based; details: Escherichia coli
# Method: (§1) According to Chemotherapy, vol. 29, No. 1, pp. 76-79 (1981), bacterium was cultured in peptone broth manufactured by Eiken Kagaku K.K. at 37° C. for 20 hours to prepare a bacterial solution of 10^8 cells/ml, and one loopful of the bacterial solution was inoculated into Heart Infusion agar medium (manufactured by Eiken Kagaku K.K.) containing a drug, cultured at 37° C. for 20 hours, after which growth of bacterium was observed. The minimum concentration at which the growth of bacterium was prevented was indicated as MIC (μg/ml).
# (§2) *means that β-lactamaseproducing bacteria.
# S. marcescens W-8 = test: Antibacterial activity (MIC, agar dilution) against S. marcescens W-8*; type: cell-based; details: Serratia marcescens
# Method: as §1, §2
# [1] = W8, S. marcescens W-8* (β-lactamase-producing bacteria), Heart Infusion agar, 37° C., 20 hours, one loopful of 10^8 cells/ml, read-out: MIC
# [2] = TK3, E. coli TK-3* (β-lactamase-producing bacteria), Heart Infusion agar, 37° C., 20 hours, one loopful of 10^8 cells/ml, read-out: MIC
Compound,MIC (S. marcescens W-8; [1]) [µg/mL],MIC (E. coli TK-3; [2]) [µg/mL],"MIC (E. coli TK-3; TK3, 20 h) [µg/mL]","MIC (S. marcescens W-8; W8, 20 h) [µg/mL]"
O=C(O)C(C(=O)N[C@@H]1C(=O)N2C[C@@](C(=O)O)(N3CCN(N=C4SCCS4)C3=O)S[C@H]12)c1ccccc1 (some centres unmarked) [compound 1],0.1,–,0.39,–
CCN1CCN(C(=O)NN2CCN([C@]3(C(=O)O)CN4C(=O)[C@@H](NC(=O)C(C(=O)O)c5ccccc5)[C@H]4S3)C2=O)C(=O)C1=O (some centres unmarked) [compound 3],–,–,0.78,0.78
O=C(NN1CCN([C@]2(C(=O)O)CN3C(=O)[C@@H](NC(=O)C(C(=O)O)c4ccccc4)[C@H]3S2)C1=O)c1cc(=O)c(O)c[nH]1 (some centres unmarked) [compound 5],–,–,3.13,3.13
CSC(=NN1CCN([C@]2(C(=O)O)CN3C(=O)[C@@H](NC(=O)C(C(=O)O)c4ccccc4)[C@H]3S2)C1=O)SC (some centres unmarked) [compound 6],1.56,–,3.13,–
NC(=O)C(=O)NN1CCN([C@]2(C(=O)O)CN3C(=O)[C@@H](NC(=O)C(C(=O)O)c4ccccc4)[C@H]3S2)C1=O (some centres unmarked) [compound 8],1.56,–,3.13,–
C=CC=NN1CCN([C@]2(C(=O)O)CN3C(=O)[C@@H](NC(=O)C(C(=O)O)c4ccccc4)[C@H]3S2)C1=O (some centres unmarked) [compound 10],–,0.1,–,0.05
O=C(O)C(C(=O)N[C@@H]1C(=O)N2C[C@@](C(=O)O)(N3CCN(N=CC=CCS(=O)(=O)O)C3=O)S[C@H]12)c1ccccc1 (some centres unmarked) [compound 12],0.1,0.78,–,–
C=CC=NN1CCN([C@]2(C(=O)O)CN3C(=O)[C@@H](NC(=O)C(C(=O)O)c4ccc(O)cc4)[C@H]3S2)C1=O (some centres unmarked) [compound 18],0.1,–,≤ 0.05,–
C#CC=NN1CCN([C@]2(C(=O)O)CN3C(=O)[C@@H](NC(=O)C(C(=O)O)c4ccc(O)cc4)[C@H]3S2)C1=O (some centres unmarked) [compound 19],–,–,≤ 0.05,≤ 0.05
CC(=O)Oc1cc(Cl)c(C(C(=O)N[C@@H]2C(=O)N3C[C@@](C(=O)O)(N4CCN(NC(N)=O)C4=O)S[C@H]23)S(=O)(=O)O)cc1OC(C)=O (some centres unmarked) [compound 20],0.78,0.78,–,–
NC(=O)NN1CCN([C@]2(C(=O)O)CN3C(=O)[C@@H](NC(=O)C(c4cc(O)c(O)cc4Cl)S(=O)(=O)O)[C@H]3S2)C1=O (some centres unmarked) [compound 21],0.39,0.39,–,–
CC(=O)Oc1cc(C(C(=O)N[C@@H]2C(=O)N3C[C@@](C(=O)O)(N4CCN(NC(N)=O)C4=O)S[C@H]23)S(=O)(=O)O)cc(Cl)c1OC(C)=O (some centres unmarked) [compound 22],12.5,6.25,–,–
O=C(N[C@@H]1C(=O)N2C[C@@](C(=O)O)(N3CCN(N=C4SCCS4)C3=O)S[C@H]12)C(c1ccccc1)S(=O)(=O)O (some centres unmarked) [compound 26],–,≤ 0.1,–,0.39
CC(=O)Oc1ccc(C(C(=O)N[C@@H]2C(=O)N3C[C@@](C(=O)O)(N4CCN(N=C5SCCS5)C4=O)S[C@H]23)S(=O)(=O)O)cc1OC(C)=O (some centres unmarked) [compound 27],–,1.56,–,–
CC(=O)Oc1ccc(C(C(=O)N[C@@H]2C(=O)N3C[C@@](C(=O)O)(N4CCN(NC(N)=O)C4=O)S[C@H]23)S(=O)(=O)O)cc1OC(C)=O (some centres unmarked) [compound 28],–,6.25,–,3.13
CC(=O)Oc1cc(Cl)c([C@H](C(=O)N[C@@H]2C(=O)N3C[C@@](C(=O)O)(N4CCN(N=CC=NNC(N)=O)C4=O)S[C@H]23)S(=O)(=O)O)cc1OC(C)=O [compound 34],–,0.2,–,0.39
NC(=O)NN1CCN([C@]2(C(=O)O)CN3C(=O)[C@@H](NC(=O)[C@@H](c4ccc(N)cc4Cl)S(=O)(=O)O)[C@H]3S2)C1=O [compound 35],–,1.56,–,0.78
NC(=O)Nc1ccc([C@H](C(=O)N[C@@H]2C(=O)N3C[C@@](C(=O)O)(N4CCN(NC(N)=O)C4=O)S[C@H]23)S(=O)(=O)O)c(Cl)c1 [compound 36],1.56,12.5,–,–

# Continued, in another order:
MIC (S. marcescens W-8; [1]) [µg/mL],MIC (E. coli TK-3; [2]) [µg/mL],Compound,"MIC (E. coli TK-3; TK3, 20 h) [µg/mL]","MIC (S. marcescens W-8; W8, 20 h) [µg/mL]"
0.39,0.39,O=C(O)C(C(=O)N[C@@H]1C(=O)N2C[C@@](C(=O)O)(N3CCN(N=Cc4ccco4)C3=O)S[C@H]12)c1ccccc1 (some centres unmarked) [compound 2],–,–
6.25,6.25,O=C(O)C(C(=O)N[C@@H]1C(=O)N2C[C@@](C(=O)O)(N3CCN(N=Cc4ccc(O)c(O)c4)C3=O)S[C@H]12)c1ccccc1 (some centres unmarked) [compound 4],–,–
6.25,12.5,O=CNN1CCN([C@]2(C(=O)O)CN3C(=O)[C@@H](NC(=O)C(C(=O)O)c4ccccc4)[C@H]3S2)C1=O (some centres unmarked) [compound 7],–,–
12.5,25,O=C(O)C=NN1CCN([C@]2(C(=O)O)CN3C(=O)[C@@H](NC(=O)C(C(=O)O)c4ccccc4)[C@H]3S2)C1=O (some centres unmarked) [compound 9],–,–
0.1,0.2,O=C(O)C=CC=NN1CCN([C@]2(C(=O)O)CN3C(=O)[C@@H](NC(=O)C(C(=O)O)c4ccccc4)[C@H]3S2)C1=O (some centres unmarked) [compound 11],–,–
3.13,12.5,O=C(O)C(C(=O)N[C@@H]1C(=O)N2C[C@@](C(=O)O)(N3CCN(NC(=O)C(F)(F)F)C3=O)S[C@H]12)c1ccc(O)cc1 (some centres unmarked) [compound 13],–,–
3.13,3.13,CCN1CCN(C(=O)NN2CCN([C@]3(C(=O)O)CN4C(=O)[C@@H](NC(=O)C(C(=O)O)c5ccc(O)cc5)[C@H]4S3)C2=O)C(=O)C1=O (some centres unmarked) [compound 14],–,–
12.5,12.5,O=C(O)CC(=O)NN1CCN([C@]2(C(=O)O)CN3C(=O)[C@@H](NC(=O)C(C(=O)O)c4ccc(O)cc4)[C@H]3S2)C1=O (some centres unmarked) [compound 15],–,–
12.5,12.5,O=C(O)C(C(=O)N[C@@H]1C(=O)N2C[C@@](C(=O)O)(N3CCN(NS(=O)(=O)O)C3=O)S[C@H]12)c1ccc(O)cc1 (some centres unmarked) [compound 16],–,–
1.56,1.56,CNC(=O)NN1CCN([C@]2(C(=O)O)CN3C(=O)[C@@H](NC(=O)C(C(=O)O)c4ccc(O)cc4)[C@H]3S2)C1=O (some centres unmarked) [compound 17],–,–
3.13,3.13,O=C(O)C(C(=O)N[C@@H]1C(=O)N2C[C@@](C(=O)O)(N3CCN(N=C4SCCS4)C3=O)S[C@H]12)c1ccc(O)c(O)c1 (some centres unmarked) [compound 23],–,–
12.5,25,NC(=O)NN1CCN([C@]2(C(=O)O)CN3C(=O)[C@@H](NC(=O)C(C(=O)O)c4ccc(O)c(O)c4)[C@H]3S2)C1=O (some centres unmarked) [compound 24],–,–
12.5,6.25,NC(=O)NN1CCN([C@]2(C(=O)O)CN3C(=O)[C@@H](NC(=O)C(C(=O)O)c4cc(O)c(O)cc4Cl)[C@H]3S2)C1=O (some centres unmarked) [compound 25],–,–
3.13,6.25,CC(=O)Oc1ccc(C(C(=O)N[C@@H]2C(=O)N3C[C@@](C(=O)O)(N4CCN(NC(N)=O)C4=O)S[C@H]23)S(=O)(=O)O)cc1 (some centres unmarked) [compound 29],–,–
1.56,6.25,NC(=O)NN1CCN([C@]2(C(=O)O)CN3C(=O)[C@@H](NC(=O)C(c4ccc(N)cc4)S(=O)(=O)O)[C@H]3S2)C1=O (some centres unmarked) [compound 30],–,–
0.1,0.2,N#CC=CC=NN1CCN([C@]2(C(=O)O)CN3C(=O)[C@@H](NC(=O)C(C(=O)O)c4ccccc4)[C@H]3S2)C1=O (some centres unmarked) [compound 31],–,–
0.78,1.56,NC(=O)C=NN1CCN([C@]2(C(=O)O)CN3C(=O)[C@@H](NC(=O)C(C(=O)O)c4ccccc4)[C@H]3S2)C1=O (some centres unmarked) [compound 32],–,–
0.2,0.39,NC(=O)C=CC=NN1CCN([C@]2(C(=O)O)CN3C(=O)[C@@H](NC(=O)C(C(=O)O)c4ccccc4)[C@H]3S2)C1=O (some centres unmarked) [compound 33],–,–
